Test results taken from publication PMC6332334, “3-H-[1,2]Dithiole as a New Anti-Trypanosoma cruzi Chemotype: Biological and Mechanism of Action Studies” (Molecules, 2015).
Like-named read-outs stand apart in the source and are kept apart here.

Key:
[1] = test system: epimastigotes of T. cruzi (Tulahuen 2 strain); test: Anti-T. cruzi test in vitro (epimastigote growth inhibition); type: cell-based, Trypanosoma cruzi; conditions: for IC50: Trypanosoma cruzi, read-out: IC50 against T. cruzi; for SI (selectivity index): macrophages (J774.1) vs T. cruzi epimastigotes
Method: (§1) To evaluate the anti-trypanosomal activity of the synthesized 3H-[1,2]dithioles we used T. cruzi, Tulahuen 2 strain (discrete typing unit, DTU, TcVI [18]) in the epimastigote form. […] To establish the selectivity of the compounds against the parasite, unspecific cytotoxicity against mammalian cells (J774.1 murine macrophages) was studied for the most relevant derivatives. The selectivity indexes (SI) were also determined (Table 1).
We used epimastigotes of the Tulahuen 2 strain (DTU, Tc VI) growing in an axenic milieu (BHI-Tryptose). Cells from a 5–7-day-old culture were inoculated in fresh culture milieu to give an initial concentration of 1 × 10^6 cells/mL. The absorbance at 600 nm of the cells in culture was measured every day. At day 5, the milieu was inoculated with different quantities of the compounds from a stock solution in DMSO (DMSO concentration in the culture milieu never exceeded 0.4%). The control was made in the presence of 0.4% DMSO and in the absence of compounds. […] At day 5, the absorbance of the culture was measured and related to the control. The IC50 value was taken as the concentration of drug needed to reduce the absorbance ratio to 50%.

cruzipain [2] = biological target: T1, cruzipain (Trypanosoma cruzi, UniProt P25779); test: Inhibition of T. cruzi cruzipain (Z-Phe-Arg-AMC fluorogenic substrate); type: biochemical; conditions: isolated enzyme
T1 construct: endogenous in cells; host or cells: T. cruzi epimastigotes, Tulahuen 2 strain
T1 sequence (P25779 123-467): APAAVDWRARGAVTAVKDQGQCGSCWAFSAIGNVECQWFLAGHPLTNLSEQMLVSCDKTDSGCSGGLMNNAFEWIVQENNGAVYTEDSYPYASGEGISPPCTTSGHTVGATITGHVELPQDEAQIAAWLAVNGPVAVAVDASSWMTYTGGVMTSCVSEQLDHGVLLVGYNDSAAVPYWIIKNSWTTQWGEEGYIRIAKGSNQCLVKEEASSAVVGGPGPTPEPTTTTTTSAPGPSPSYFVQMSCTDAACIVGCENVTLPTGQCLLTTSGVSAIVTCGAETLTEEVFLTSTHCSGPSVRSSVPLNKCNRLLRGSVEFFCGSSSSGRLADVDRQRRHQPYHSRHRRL

cruzipain [3] = biological target: T1, cruzipain; test: as above; type: biochemical; conditions: read-out: Cruzipain % Inhib100
Method: Initially, we tested the dithioles as inhibitors of the protease cruzipain from T. cruzi at a concentration of 100 μM.
Cruzipain was purified to homogeneity from epimastigotes of the Tulahuen 2 strain by ConA-Sepharose affinity chromatography, as previously described. Cruzipain (2.5 μM ε = 58,285 M^−1·cm^−1) was incubated in 50 mM acetate buffer pH 5.5 with 50 mM DTT and 100 μM inhibitor was added, shaking the solution for 15 min at 27 °C. The derivatives were added diluted in DMSO, and the controls contained the same solvent concentration. The concentration of DMSO never exceeded 1% in the reaction medium. E-64 was used as a positive control of inhibition. Then, the fluorogenic substrate Z-Phe-Arg-AMC (100 μM) was added and the fluorescence was measured during 10 min at intervals of 3 s (excitation at 350 nm and emission at 460 nm) using a Varioskan Flash Spectrophotometer. From the slope of the negative control, we calculated the total (100%) enzyme activity, while the slopes obtained in the presence of the compounds yielded the percentage of remaining enzyme activity. The percentage of enzyme inhibition was determined as […]. The experiments were done in duplicate.

[4] = test system: J774.1 murine macrophages; test: Unspecific in vitro cytotoxicity of mammalian cells (MTT); type: cell-based; conditions: Mus musculus, 48 h exposure, read-out: IC50 against Macrophages
Method: as §1
J774.1 murine macrophage cells (ATCC, Manassas, VA, USA) were grown in DMEM culture milieu containing 4 mM L-glutamine and supplemented with 10% heat-inactivated fetal calf serum. […] Afterwards, cells were exposed for 48 h to the compounds (25–400 μM) or vehicle for control (0.4% DMSO), and additional controls (cells in medium) were used in each test. Cell viability was then assessed by measuring the mitochondria-dependent reduction of MTT (3-(4,5-dimethylthiazol-2-yl)-2,5-diphenyltetrazolium bromide) to formazan. For this purpose, MTT in sterile PBS (0.2% glucose) pH 7.4 was added to the macrophages to achieve a final concentration of 0.1 mg/mL and the cells were incubated at 37 °C for 3 h. After removing the medium, formazan crystals were dissolved in 180 μL of DMSO and 20 μL of MTT buffer (0.1 M glycine, 0.1 M NaCl, 0.5 mM EDTA, pH 10.5) and the absorbance at 560 nm was measured. The IC50 was defined as the drug concentration at which 50% of the cells were viable, relative to the control (no drug added), and was determined by analysis using OriginLab8.5® sigmoidal regression (% of viable cells vs. logarithm of the compound concentration). Samples were performed in triplicate.

[5] = biological target: T2, Trypanosoma cruzi triosephosphate isomerase (TcTIM) (Trypanosoma cruzi, UniProt P52270); test: Inhibition of enzymatic activity of TcTIM; type: biochemical; conditions: for inhibition at 25 µM: read-out: TcTIM % Inhib25; for inhibition at 200 µM: read-out: TcTIM % Inhib200; for IC50: isolated enzyme, 2 h incubation at 36 °C
T2 construct: made in house; host or cells: Escherichia coli
T2 sequence (P52270 whole entry): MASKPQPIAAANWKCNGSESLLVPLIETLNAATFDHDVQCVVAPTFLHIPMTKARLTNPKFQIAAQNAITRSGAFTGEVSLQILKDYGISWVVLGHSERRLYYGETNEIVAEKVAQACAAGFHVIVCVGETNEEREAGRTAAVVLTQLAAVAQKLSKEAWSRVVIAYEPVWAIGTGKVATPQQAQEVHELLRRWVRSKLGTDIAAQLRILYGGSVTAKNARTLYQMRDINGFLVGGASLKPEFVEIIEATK
Method: In order to investigate if the 3H-[1,2]dithioles inhibit TcTIM, we initially tested the inhibitory capacity of the compounds at a concentration of 200 μM and then at 25 μM.
Expression and purification of protein: TcTIM was expressed in Escherichia coli and purified as described in the literature. After purification, the enzyme, dissolved in 100 mM triethanolamine, 10 mM EDTA and 1 mM dithiothreitol (pH 8), was precipitated with ammonium sulfate (75% saturation) and stored at 4 °C. Before use, extensive dialysis against 100 mM triethanolamine/10 mM EDTA (pH 7.4) was performed. Protein concentration was determined by absorbance at 280 nm (ε = 36,440 M^−1·cm^−1).
Enzymatic activity assays. Enzymatic activity was determined following the conversion of glyceraldehyde 3-phosphate into dihydroxyacetone phosphate. The decrease in absorbance at 340 nm was followed in a multicell Cary spectrophotometer at 25 °C. The reaction mixture (1 mL, pH 7.4) contained 100 mM triethanolamine, 10 mM EDTA, 0.2 mM NADH, 1 mM glyceraldehyde 3-phosphate, and 0.9 units of α-glycerol phosphate dehydrogenase. The reaction was initiated by addition of 5 ng/mL of the TcTIM.
For inactivation studies, TcTIM was incubated at a concentration of 5 mg/mL in a buffer containing 100 mM triethanolamine, 10 mM EDTA, pH 7.4 and 10% of DMSO at 36 °C. The mixture also contained the compounds at the indicated concentrations. Compounds were dissolved in DMSO. After 2 h, […] was withdrawn and added to 1 mL of reaction mixture for the activity assay. None of the molecules tested here affected the activity of α-glycerol phosphate dehydrogenase, the enzyme used for trapping the product.
The IC50 value was taken as the concentration of drug needed to reduce the enzymatic activity to 50%. The experiments were performed in triplicate.

[6] = epimastigotes, Tulahuen 2 strain, triplicate
[7] = percentage of enzymatic inhibition at 100 μM
[8] = percentage of enzymatic inhibition at 25 μM
[9] = percentage of enzymatic inhibition at 200 μM

SMILES | IC50 [1, 6] | IC50 (cruzipain [2]) | inhibition at 100 µM (cruzipain [3]; [7]) | inhibition at 25 µM [5, 8] | inhibition at 200 µM [5, 9] | IC50 [5] | also measured
O=C(COc1ccc(-c2cc(=S)ss2)cc1)c1ccccc1 [Derivative 11] | > 25 µM | 17.1 ± 3.6 µM | 96.3 ± 0.7% | – | – | – | –
Oc1ccc(-c2cc(=S)ss2)cc1 [Derivative 6] | 25 ± 1 µM | – | 59.3 ± 0.3% | 35 ± 3% | 71% | – | IC50 [4]: 51 ± 2 µM; SI (selectivity index) [1]: 2.0
COc1ccc(-c2cc(=[S+]CC(=O)c3ccc4ccccc4c3)ss2)cc1 [Derivative 21] | > 25 µM | 17.7 ± 3.9 µM | 90.2 ± 0.6% | – | 65% | – | –
COc1ccc(C2=C/C(=C(\SCC(=O)c3ccc4ccccc4c3)C(=O)c3ccc4ccccc4c3)SS2)cc1 [Derivative 17] | > 25 µM | – | 82.6 ± 0.6% | 52 ± 2.5% | 81% | – | –
O=C(/C=C/c1ccc(C(=O)Oc2ccc(-c3cc(=S)ss3)cc2)cc1)c1ccccc1 [Derivative 8] | > 25 µM | – | 58 ± 0.1% | – | – | – | –
COc1ccc(-c2cc(=[S+]CC(C)=O)ss2)cc1 [Derivative 19] | > 25 µM | 11.3 ± 0.6 µM | 90.5 ± 0.7% | 73 ± 3.2% | 95% | 3.26 ± 0.05 µM | IC50 against T. cruzi [1, 6]: inactive
O=C(Cc1ccccc1)Oc1ccc(-c2cc(=S)ss2)cc1 [Derivative 1] | – | – | – | – | – | – | IC50 ([1]; TULAHUEN): > 25 µM; inhibition at 25 µM [5]: 33 ± 1.9%; inhibition at 200 µM [5]: 77%; inhibition at 100 µM (cruzipain [3]): 21.3 ± 0.3%
O=C(Oc1ccc(-c2cc(=S)ss2)cc1)c1ccc(/C=C/C(=O)c2ccccc2O)cc1 [Derivative 9] | 25 ± 0.5 µM | – | 77.9 ± 0.6% | – | 50% | – | IC50 [4]: 63 ± 2 µM; SI (selectivity index) [1]: 2.5
O=C(C[S+]=c1cc(-c2ccc(O)cc2)ss1)c1ccc2ccccc2c1 [Derivative 18] | > 25 µM | – | 77.1 ± 0.1% | 75 ± 0.3% | 70% | 11.03 ± 0.03 µM | –
O=C(COc1ccc(-c2cc(=S)ss2)cc1)c1ccc2ccccc2c1 [Derivative 12] | > 25 µM | 21.6 ± 6.1 µM | 91.5 ± 0.6% | – | 70% | – | TcTIM % Inhib25 [5, 8]: ni ^d
CC(=O)COc1ccc(-c2cc(=S)ss2)cc1 [Derivative 10] | > 25 µM | – | 73.9 ± 0.1% | 61 ± 1% | 70% | – | –
O=C(CS/C(C(=O)c1ccccc1)=C1\C=C(c2ccc(O)cc2)SS1)c1ccccc1 [Derivative 13] | 5.5 ± 0.9 µM | – | 61 ± 0.3% | 75 ± 6% | 86% | 3.35 ± 0.14 µM | IC50 [4]: 34 ± 0.5 µM; SI (selectivity index) [1]: 6.2
COc1ccc(C2=C/C(=C(\SCC(=O)c3ccccc3)C(=O)c3ccccc3)SS2)cc1 [Derivative 16] | > 25 µM | – | 62.3 ± 0.3% | 63 ± 0.1% | 77% | 7.53 ± 0.1 µM | –
O=C(/C=C/c1ccccc1)Oc1ccc(-c2cc(=S)ss2)cc1 [Derivative 7] | > 25 µM | – | 78.4 ± 0.6% | – | 14% | – | –
COc1ccc(-c2cc(=S)ss2)cc1 [Derivative 5] | > 25 µM | 4 ± 2 µM | 89 ± 0.5% | 80 ± 2.3% | 86% | 1.2 ± 0.05 µM | IC50 against T. cruzi [1, 6]: inactive
COc1ccc(-c2cc(=[S+]CC(=O)c3ccccc3)ss2)cc1 [Derivative 20] | > 25 µM | – | 72 ± 0.1% | – | – | – | –
